According to patent US7186879B2, “Screening systems and methods for identifying modulators of xenobiotic metabolism” (Baylor College of Medicine, priority 2001, dated 2007):

Legend:
[1] = tested on: CYP2E1, CYP1A2, CYP3A11, GSTPi; assay: Northern blot of APAP metabolizing genes in liver of wild-type and CAR null mice; conditions: for suppression of CYP2E1 and induction of CYP1A2, CYP3A11, GSTPi: CAR null mice; for CYP1A2 mRNA / CYP2E1 mRNA levels / CYP3A11 mRNA / GSTPi mRNA: wild-type animals, three days pretreatment
Protocol: CAR (+/+) or CAR (−/−) animals pretreated with phenobarbital (PB), TCPOBOP (TC), or vehicle alone were administered a 250 mg/kg dose of APAP by intraperitoneal injection (n=5–7 per treatment group) (FIG. 11A). […] Liver sections from different treatments were examined by histological staining (FIG. 11B). Liver samples from all treated animals were analyzed but only representative histology is presented. […] CAR (+/+) or CAR (−/−) animals were pretreated with PB, TCPOBOP (TC), or vehicle alone for three days (FIG. 11C). […] Liver samples treated as indicated were collected two hours after APAP and GSH levels were measured (n=5–7) (FIG. 11D).
CAR (+/+) and CAR (−/−) animals were given 250 mg/kg, 500 mg/kg, or 800 mg/kg doses of APAP, respectively (FIG. 12A). […] Total liver RNA was prepared from 500 mg/kg APAP treated CAR (+/+) and CAR (−/−) livers at 0 and 2 hours as indicated. […] The same blot was stripped and re-probed with β-actin as loading control.
For histologic examination of the treated mice, the left lobe of the livers was removed and immediately fixed in 4% formaldehyde-PBS solution, embedded in paraffin, sectioned at 5 μm, and stained with hematoxylin and eosin. Samples were examined under a light microscope. For RNA studies, total RNA was extracted using TRIzol Reagent (Invitrogen Life Technologies, Carlsbad, Calif.) according to the manufacture's instruction. Equivalent amount of RNA from 3–5 mice were pooled and 10 μg of each sample was subjected to northern blot analysis. […] Hepatic non-protein thiol was measured as an indication of hepatic GSH content. Mice were sacrificed two hours after intraperitoneal injection with APAP. […] Supernatant (0.5 ml) was mixed with 1.5 ml 0.1 mM Ellman's reagent [5,5′-dithio-bis(2-nitrobenzoic acid)] […] Absorbance was read at 412 nm using GSH solutions as quantitative standards.

murine CAR = conditions: no functional CAR (homozygous mutation, no transgene), 24 hours
Protocol: Total RNA was prepared from the livers of the individual mice, and CYP2B10 mRNA expression was assessed by Northern blotting.
Mice heterozygous for the murine CAR gene mutation and lacking the human CAR transgene express only murine CAR. […] Mice homozygous for the murine CAR gene mutation and carrying the human CAR transgene express only human CAR in the liver.

CYP2B10 = assay: In situ hybridization of CYP2B10 in small intestine; conditions: for CYP2B10 expression in the small intestine: 3 days treatment; for number of grains per cell, with or without treatment: CAR −/− animals; for number of grains per cell, with or without treatment / number of grains per cell, treated versus untreated: small intestine
[2] = tested on: wild-type and CAR knockout mice; assay: APAP toxicity after pretreatment with inducers (serum ALT, histology); type: in vivo, mouse; conditions: APAP 250 mg/kg; for hepatotoxicity, inducer plus APAP: CAR null mice; for liver histology after pretreatment and APAP: wild-type animals; for ALT levels and hepatic necrosis, inducer plus APAP: wild-type, 24 hours
Protocol: CAR (+/+) or CAR (−/−) animals pretreated with phenobarbital (PB), TCPOBOP (TC), or vehicle alone were administered a 250 mg/kg dose of APAP by intraperitoneal injection (n=5–7 per treatment group) (FIG. 11A). Serum was collected and alanine aminotransferase (ALT) levels were measured after 24 hours. Liver sections from different treatments were examined by histological staining (FIG. 11B). Liver samples from all treated animals were analyzed but only representative histology is presented. […] CAR (+/+) or CAR (−/−) animals were pretreated with PB, TCPOBOP (TC), or vehicle alone for three days (FIG. 11C). […] Liver samples treated as indicated were collected two hours after APAP and GSH levels were measured (n=5–7) (FIG. 11D).
The effect of PB and the potent CAR agonist TCPOBOP on APAP toxicity was examined in wild-type and CAR knockout mice. Both strains of mice were treated with inducers or the vehicle control, followed by 250 mg/kg APAP. For these studies, mice were kept in a pathogen-free animal facility under standard 12 hour light/12 hour dark cycle and fed standard rodent chow and water ad libitum. At least five mice between 8 and 10 weeks old were used in each treatment group. For 3-day PB (100 mg/kg) treatment, mice were injected intraperitoneally three times, one injection per day. TCPOBOP (3 mg/kg) and/or APAP were injected intraperitoneally. Phenobarbital and TCPOBOP were suspended or dissolved in corn oil, and APAP was dissolved in basic PBS (pH=11). PB and APAP were purchased from Sigma (St Louis, Mo.); TCPOBOP was a gift from Dr. Stephen Safe.
For histologic examination of the treated mice, the left lobe of the livers was removed and immediately fixed in 4% formaldehyde-PBS solution, embedded in paraffin, sectioned at 5 μm, and stained with hematoxylin and eosin. Samples were examined under a light microscope. For RNA studies, total RNA was extracted using TRIzol Reagent (Invitrogen Life Technologies, Carlsbad, Calif.) according to the manufacture's instruction. Equivalent amount of RNA from 3–5 mice were pooled and 10 μg of each sample was subjected to northern blot analysis. […] Preparation of probes for CYP2B10 and CYP3A11 were described as previously (Wei et al., Nature 407:920–923, 2000 and Zelko et al., Mol Cell Biol 21:2838–2846, 2001). PCR primers used were: CYP1A2: 5′-[…]-3′ (SEQ ID NO: 19) and 5′-[…]-3′ (SEQ ID NO: 20), CYP2E1: 5′-[…]-3′ (SEQ ID NO: 21) and 5′-[…]-3′ (SEQ ID NO: 22), GSTPi: 5′-[…]-3′ (SEQ ID NO: 23) and 5′-[…]-3′ (SEQ ID NO: 24). Hepatic non-protein thiol was measured as an indication of hepatic GSH content. Mice were sacrificed two hours after intraperitoneal injection with APAP. Livers were removed and immediately homogenized in four volumes of 5% trichloroacetic acid and then centrifuged at 1,600×g for 15 minutes. Supernatant (0.5 ml) was mixed with 1.5 ml 0.1 mM Ellman's reagent [5,5′-dithio-bis(2-nitrobenzoic acid)] (Sigma, St Louis, Mo.) and allowed to stand at room temperature for 15 minutes. Absorbance was read at 412 nm using GSH solutions as quantitative standards.

[3] = tested on: wild-type and CAR −/− mice; assay: Liver enlargement (liver mass relative to body weight); type: in vivo, mouse; conditions: for hyperplasia or hypertrophy in the liver: CAR knockout mice; for liver mass: three days of treatment
Protocol: FIG. 3A is a bar graph showing the liver enlargement and hepatocyte proliferation by PB or TCPOBOP. Mice (8–10 weeks old) were treated with PB or TCPOBOP for 3 days, and then both liver mass and body weight were measured. The data is presented as percentage of liver mass relative to total body weight.
This hepatomegaly is thought to be a reflection of both cellular hypertrophy and mitogenesis.

Row | Structure (SMILES) | suppression of CYP2E1 and induction of CYP1A2, CYP3A11, GSTPi [1] | CYP1A2 mRNA [1] | CYP2E1 mRNA levels [1] | CYP3A11 mRNA [1] | GSTPi mRNA [1] | induction of CYP2B10 mRNA (murine CAR) | CYP2B10 expression in the small intestine (CYP2B10; CAR knockout mice) | number of grains per cell, with or without treatment (CYP2B10) | CYP2B10 expression in the small intestine (CYP2B10; wild-type mice) | number of grains per cell, treated versus untreated (CYP2B10; wild-type mice) | hepatotoxicity, inducer plus APAP [2] | liver histology after pretreatment and APAP [2] | ALT levels and hepatic necrosis, inducer plus APAP [2] | hyperplasia or hypertrophy in the liver [3] | liver mass ([3]; CAR −/− mice) | liver mass ([3]; wild-type mice)
1 | Clc1cnc(Oc2ccc(Oc3ncc(Cl)cc3Cl)cc2)c(Cl)c1 [TCPOBOP, 1,4-bis[2-(3,5-dichloropyridyloxy)]benzene] | Neither the suppression of CYP2E1 nor the induction of the other enzymes was observed | induced | modestly suppressed | induced | induced | no response | not detected | not significantly different | induced CYP2B10 expression | approximately two-fold higher | no such hepatotoxicity | extensive hepatic centrilobular necrosis | strongly elevated ALT levels and hepatic necrosis | not detected | did not show any evidence of increased liver mass | increase in liver mass
2 | CCC1(c2ccccc2)C(=O)NC(=O)NC1=O [PB, phenobarbital] | Neither the suppression of CYP2E1 nor the induction of the other enzymes was observed | induced | modestly suppressed | induced | induced | no response | not detected | not significantly different | induced CYP2B10 expression | approximately two-fold higher | no such hepatotoxicity | extensive hepatic centrilobular necrosis | strongly elevated ALT levels and hepatic necrosis | not detected | did not show any evidence of increased liver mass | increase in liver mass
